This is an account of results in patent US20240197709A1, “POTENTIATING THE TUMOR-SELECTIVE EFFECTS OF NQO1-BIOACTIVATABLE AGENT BY USE OF CMET INHIBITOR” (The Trustees of Indiana University, priority 2022, published 2024).

Series [1] has as its system A549 NSCLC cells. Put plainly: long-term cell survival assay, A549. In kind it is cell-based. Conditions: sub-lethal crizotinib (2 μM) 2 h pre-treatment, then criz ± β-lap 2 h, ~7 days, DER >1 = synergistic. The method, then:
FIG. 1B. […] LC50 values were calculated from long-term cell survival graphs using GraphPad PRISM; ND denotes Not Determined even at the highest concentration presented. All error bars represent the mean±SEM. **** p<0.0001, *** p<0.001, ** p<0.01, *p<0.05.
FIG. 1C. […] LC50 values were calculated from long-term cell survival graphs using GraphPad PRISM; ND denotes Not Determined even at the highest concentration presented. All error bars represent the mean±SEM. **** p<0.0001, *** p<0.001, ** p<0.01, *p<0.05.

Series [2] has as its system Capan2 PDAC shMET cells. Put plainly: transwell migration and invasion, Capan2 shSCR vs shMET. In kind it is cell-based. Conditions: β-lap 2 μM 2 h, versus shSCR control. The method, then: FIG. 4-1D. Representative images from in vitro transwell migration assay comparing Capan2 shSCR and Capan2 shMET treated with vehicle control or sub-lethal β-lap (2 μM, 2 h). Images were taken at 16 h post-treatment.
FIG. 4-1E. Bar graph illustrating the percentage of Capan2 shSCR vs shMET PDAC cell migration at 16 h post-treatment with vehicle or sub-lethal β-lap (2 μM, 2 h). Two-way ANOVA was used for statistical analyses; * p<0.05; **** p<0.0001.
FIG. 4-1F. Representative images from in vitro transwell invasion assay comparing Capan2 shSCR and Capan-2 shMET treated with vehicle control or sub-lethal β-lap (2 μM, 2 h). Images were taken at 16 h post-treatment.
FIG. 4-1G. Bar graph illustrating the percentage of Capan2 shSCR vs shMET PDAC cell invasion at 16 h post-treatment with vehicle or sub-lethal β-lap (2 μM, 2 h). Two-way ANOVA was used for statistical analyses; * p<0.05; **** p<0.0001.
Overexpression of cMET in many cancers, including NSCLC and PDAC, is known to enhance cancer cell mobility, migration, and invasion (Spina, et al., Biomedicines 2015, 3(1), 71-88). […]

Series [3] deals with A549 shSCR 3D spheroids. Nature of the series: 3D spheroid growth and viability, A549 shSCR. In kind it is cell-based. As to conditions: β-lap 3 μM. The method, then:
FIG. 5A. Representative brightfield images of A549 shSCR versus shMET 3D spheroids treated with vehicle control (0.1% DMSO) or β-lap (3 μM, which is sub-lethal in A549 NSCLC cells in 2D long-term survival assays) imaged at indicated times to monitor microtumor spheroid growth. Scale bar=250 μm.
FIG. 5B. Graphical comparison of 3D spheroid (microtumor) growth of A549 shSCR vs shMET at indicated treatments over time relative to initial 3D spheroid area (day 1).
FIG. 5C. Quantification of 3D spheroid viability at day 10 (in panel A) using CellTiter-Glo® 3D Cell Viability Assay.
Studies have shown that drug sensitivity of cancer cells cultured in three-dimension (3D) more accurately predicts their sensitivity in vivo.30-31 Thus, we utilized 3D tumor spheroid growth of our isogenic A549 shSCR or shMET cancer cell lines to closely recapitulate the cell-cell interactions of human tumors32-33. After three days of spheroid formation, A549 shSCR and shMET microtumors were exposed to vehicle control (0.1% DMSO) or β-lap (3 μM, sub-lethal concentration in 2D culture for A549 parental line), and imaged over time for 3D spheroid tumor growth for comparison. […] Additionally, the viability of A549 shSCR versus shMET 3D spheroids treated with vehicle control and β-lap at day 10 was determined using CellTiter-Glo® 3D Viability Assay (FIG. 5C) for comparison. […]

The subject of series [4] is Capan2-mCherry microtumor. Nature of the series: 3D spheroid co-culture, tumor cells. The class given is cell-based. As to conditions: 3D co-culture with NIH3T3-GFP; crizotinib 2 μM, β-lap 2 μM or 4 μM. The method, then: FIG. 5D. Top Inset: Representative brightfield, green (NIH3T3-GFP), red (Capan2-mCherry), and merged images of 3D spheroid co-culture of Capan2-mCherry (cancer cells) and NIH3T3-GFP (normal cells). 3D co-cultures were exposed to specified treatment conditions and imaged at indicated times to monitor drug response. Scale bar=250 μm. Untreated NIH3T3-GFP 3D spheroid culture by itself (imaged at indicated times) was added for reference.
FIG. 5E. Bar graph of Capan2-mCherry 3D spheroid microtumor growth at specified treatment conditions over time. Asterisk (*) indicates synergistic response in the combination treatment compared to the corresponding individual treatments alone.
Next, we investigated the tumor-selectivity and efficacy of our combination treatment strategy using 3D co-culture spheroids of Capan2 PDAC (permanently labelled with mCherry) and NIH3T3 mouse embryonic fibroblast cells (permanently labelled with GFP) to mimic physiological cell-cell and cell-environment interactions during treatment. […] These are consistent with patient data comparing associated normal tissues versus tumors in pancreas (FIGS. 1-1B, 1-1G) and lungs (FIGS. 1A, 1-1B, 1-1H). Using confocal fluorescent microscopy, we noted that NIH3T3-GFP fibroblast cells were surrounding the Capan2-mCherry PDAC cells in the 3D spheroid co-culture (FIG. 5D).

Series [5] has as its system cancers with NQO1. Conditions: average, most cancers with NQO1; cited from earlier work.
The conditions of series [6]: HPBCD formulation; cited from earlier work.

Consider `CC1(C)CCC2=C(O1)c1ccccc1C(=O)C2=O` [β-lap, β-Lapachone], for which the “DERLC50 (dose-enhancement ratio) of β-lap” value in series [1] is 6.6. In series [2], the cell invasion entry was “significantly reduced” and the cell migration result was “significantly reduced”. Also, in series [3], the “3D spheroid (microtumor) growth over time” value was “relatively negligible microtumor lethality” and the “3D spheroid viability at day 10 (CellTiter-Glo 3D)” value was “no significant lethality”. Also, the Capan2-mCherry microtumor growth result in series [4] is listed as “very little effect on tumor growth”. In series [5], the LD50 is 3.0 to 6.0 µM. Besides, the “maximum-tolerated dose (MTD)” value in series [6] is reported as “about 25 mg/kg”.
